Source: patent US20030159171A1, “Novel plant genes and uses thereof” (Syngenta Participations AG, priority 1999, published 2003)

Tested on: sugarbeet NIM-like clone (SEQ ID NO:39 and 63)
Assay: Northern analysis of sugarbeet NIM-like clone expression after BTH treatment
Format: in vivo, Beta vulgaris
Settings: after 100 μM or 300 μM BTH treatment

How did the “increase of expression of the sugarbeet NIM-like clone (Northern data)” value turn out when CSC(=O)c1cccc2nnsc12 [BTH, benzo(1,2,3)thiadiazole-7-carbothioic acid S-methyl ester] was run?
Its value is “three to seven”.
